The values that follow come from patent US20250296940A1, “ANNULATED 2-AMINO-3-CYANO THIOPHENES AND DERIVATIVES FOR THE TREATMENT OF CANCER” (Boehringer Ingelheim Int'l GmbH Corp., priority 2021, published 2025).

The structures appear in SMILES notation.

One series concerns the target T1, CYP3A4 (Homo sapiens, UniProt P08684).
T1 construct: assayed in human liver microsomes (0.02 mg/mL) with midazolam (15 μM) as a substrate; from tissue; host or cells: human liver microsomes
Briefly: Mechanism based inhibition of CYP3A4 assay (MBI 3A4). To be noted: human liver microsomes, 25 uM compound; hydroxy-midazolam formation after 30 min preincubation relative to 0 min. Type of series: in vitro ADME. As to the method:
The time dependent inhibition towards CYP3A4 is assayed in human liver microsomes (0.02 mg/mL) with midazolam (15 μM) as a substrate. The test compounds and water control (wells w/o test compound) are preincubated in presence of NADPH (1 mM) with human liver microsomes (0.2 mg/mL) at a concentration of 25 uM for 0 min and 30 min. After preincubation, the incubate is diluted 1:10 and the substrate midazolam is added for the main incubation (15 min). The main incubation is quenched with acetonitrile and the formation of hydroxy-midazolam is quantified via LC/MS-MS. The formation of hydroxy-midazolam from the 30 min preincubation relative to the formation from the 0 min preincubation is used as a readout. Values of less than 100% mean that the substrate midazolam is metabolized to a lower extent upon 30 min preincubation compared to 0 min preincubation. In general low effects upon 30 min preincubation are desired (corresponding to values close to 100%/not different to the values determined with water control).
Data obtained with the disclosed assay for a selection of compounds (I) according to the invention: […]

Series [1] relates to NCI-H2122 cells (NSCLC, G12C). Briefly: NCI-H2122 CTG proliferation assay (120 h). Type of series: cell-based. To be noted: Homo sapiens, NCI-H2122, CellTiter-Glo. As to the method: The CTG assay is designed to measure quantitatively the proliferation of NCI-H2122 cells (ATCC CRL-5985), using the CellTiter Glow Assay Kit (Promega G7571). Cells are grown in RPMI medium (ATCC) supplemented with Fetal Calf Serum (Life Technologies, Gibco BRL, Cat. No. 10270-106). On “day 0” 200 NCI-H2122 cells are seeded in 60 μL RPMI ATCC+10% FCS+ Penstrep in a black 384-well plate, flat and clear bottom (Greiner, PNr. 781091). Cells are then incubated in the plates at 37° C. in a CO2 incubator overnight. On day 1, compounds (10 mM stock in DMSO) are added with the ECHO acoustic liquid handler system (Beckman Coulter), including DMSO controls. Plates are incubated for 120 h, and cell viability is measured using CellTiter-Glo luminescent cell viability reagent (Promega product code G7570). Viability (stated as percent of control) is defined as relative luminescence units RLU of each well divided by the RLU of cells in DMSO controls. IC50 values are determined from viability measurements by non-linear regression using a four parameter model.
IC50 values of representative compounds according to the invention measured with these assays in the indicated cell lines: […]
Background: In ATP-based viability assays light output follows the ATP content of the culture.

T1 sequence (P08684 whole entry): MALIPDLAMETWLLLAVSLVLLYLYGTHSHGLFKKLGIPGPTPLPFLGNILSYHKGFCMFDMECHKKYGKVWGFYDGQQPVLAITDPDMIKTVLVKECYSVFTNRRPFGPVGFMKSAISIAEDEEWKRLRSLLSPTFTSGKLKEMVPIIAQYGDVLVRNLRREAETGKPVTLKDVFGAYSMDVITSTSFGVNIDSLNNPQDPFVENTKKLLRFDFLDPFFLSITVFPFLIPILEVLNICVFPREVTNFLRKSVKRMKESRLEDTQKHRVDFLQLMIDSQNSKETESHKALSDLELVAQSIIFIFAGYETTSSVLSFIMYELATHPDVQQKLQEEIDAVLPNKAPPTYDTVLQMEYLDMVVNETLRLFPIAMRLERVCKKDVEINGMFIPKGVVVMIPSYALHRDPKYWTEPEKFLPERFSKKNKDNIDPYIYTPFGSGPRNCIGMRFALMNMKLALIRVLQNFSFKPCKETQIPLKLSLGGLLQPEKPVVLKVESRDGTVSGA

Regarding `C=C(F)C(=O)N1[C@@H](C)CN(c2cc(O[C@@H](C)[C@@H]3CCCN3C)nc(-c3onc4c3CCC[C@@]43CCCc4sc(N)c(C#N)c43)n2)C[C@@H]1C` [Ia-1], the “MBI 3A4” value on CYP3A4 was 61%.
As usually defined, the IC50 is the concentration at which inhibition is half-maximal. For the compound `C=CC(=O)N1[C@@H](C)CN(c2cc(O[C@@H](C)[C@@H]3CCCN3C)nc(-c3onc4c3CCC[C@@]43CCCc4sc(N)c(C#N)c43)n2)C[C@@H]1C` [Ia-2], the “MBI 3A4” value at CYP3A4 came out at 62%. The same compound yielded a half-inhibitory concentration (IC50) in series [1] of 2 nM.
Consider `C=C(F)C(=O)N1[C@@H](C)CN(c2cc(-c3onc4c3CCC[C@@]43CCCc4sc(N)c(C#N)c43)nc(O[C@@H](C)[C@@H]3CCCN3C)n2)C[C@@H]1C` [Ia-3], for which, in series [1], 96 nM corresponded to half-maximal inhibition (IC50).
`C=CC(=O)N1[C@@H](C)CN(c2cc(-c3onc4c3CCC[C@@]43CCCc4sc(N)c(C#N)c43)nc(O[C@@H](C)[C@@H]3CCCN3C)n2)C[C@@H]1C` [Ia-4] came in with an IC50 in series [1] of 4 nM.
`C[C@H](Oc1cc(N2C[C@H](C)N(C(=O)/C=C/CF)[C@@H](C)C2)nc(-c2noc3c2CCC[C@@]32CCCc3sc(N)c(C#N)c32)n1)[C@@H]1CCCN1C` [Ib-1]: the IC50 in series [1] was 29 nM.
`C=CC(=O)N1CCN(c2cc(O[C@@H](C)[C@@H]3CCCN3C)nc(-c3noc4c3CCC[C@@]43CCCc4sc(N)c(C#N)c43)n2)CC12CC2` [Ib-2]: 19 nM corresponded to half-maximal inhibition in series [1] (IC50).
As for `C=CC(=O)N1[C@@H](C)CN(c2cc(O[C@@H](C)[C@@H]3CCCN3C)nc(-c3noc4c3CCC[C@@]43CCCc4sc(N)c(C#N)c43)n2)C[C@@H]1C` [Ib-3], the “MBI 3A4” value on CYP3A4 was 65%.
Take `C=CC(=O)N1[C@@H](C)CN(c2cc(-c3noc4c3CCC[C@@]43CCCc4sc(N)c(C#N)c43)nc(O[C@@H](C)[C@@H]3CCCN3C)n2)C[C@@H]1C` [Ib-4]: the “MBI 3A4” value on CYP3A4 is 78%.
`C=C(F)C(=O)N1[C@@H](C)CN(c2cc(O[C@@H](C)[C@@H]3CCCN3C)nc(-c3noc4c3CCC[C@@]43CCCc4sc(N)c(C#N)c43)n2)C[C@@H]1C` [Ib-5]: the “MBI 3A4” value at CYP3A4 was found to be 69%. The same compound displayed an IC50 in series [1] of 21 nM.
In the case of `C=C(F)C(=O)N1[C@@H](C)CN(c2cc(-c3noc4c3CCC[C@@]43CCCc4sc(N)c(C#N)c43)nc(O[C@@H](C)[C@@H]3CCCN3C)n2)C[C@@H]1C` [Ib-6], at CYP3A4, the “MBI 3A4” value worked out at 64%. For the same compound, the IC50 in series [1] is 35 nM.
In the case of `C[C@H](Oc1nc(-c2noc3c2CCC[C@@]32CCCc3sc(N)c(C#N)c32)cc(N2C[C@H](C)N(C(=O)/C=C/CF)[C@@H](C)C2)n1)[C@@H]1CCCN1C` [Ib-7], on CYP3A4, the “MBI 3A4” value is reported as 62%. This compound also had an IC50 in series [1] of 190 nM.
Compound `C[C@H](Oc1nc(-c2noc3c2CCC[C@@]32CCCc3sc(N)c(C#N)c32)cc(N2C[C@H](C)N(C(=O)/C=C/c3cccnc3)[C@@H](C)C2)n1)[C@@H]1CCCN1C` [Ib-8] had an IC50 in series [1] of 999 nM. This lies in the sub-micromolar range.
Regarding `COC/C=C/C(=O)N1[C@@H](C)CN(c2cc(-c3noc4c3CCC[C@@]43CCCc4sc(N)c(C#N)c43)nc(O[C@@H](C)[C@@H]3CCCN3C)n2)C[C@@H]1C` [Ib-9], the “MBI 3A4” value on CYP3A4 came out at 68%. This compound also showed an IC50 in series [1] of 2260 nM.
